{"source": "patent US12564579B2", "about": "“Topical formulations of (1S)-1-phenyl-2-pyridin-2-ylethanamine” (priority 2020, dated 2026)", "origin": "cited, not measured here", "conditions": "clinical trials"}
{"smiles": "N[C@@H](Cc1ccccn1)c1ccccc1", "note": "[Lanicemine, (1S)-1-phenyl-2-pyridin-2-ylethanamine]", "values": [{"measurement": "psychotomimetic side effects", "result": "little or no psychotomimetic side effects"}, {"measurement": "study endpoints", "setting": "development terminated by sponsor", "result": "did not meet study endpoints"}]}
